For the experiment, the target named is T1, NL20 human bronchial epithelial cells expressing human Z-AAT (Homo sapiens, UniProt P01009, E366K).
T1 construct: expressed in transfected cells; host or cells: NL20 human bronchial epithelial cells (NL20-SI line, doxycycline added)
The experiment in a line: AAT Function Assay (MSD Assay NL20-SI Cell Line). The format is cell-based. The note with it: functionally active AAT (AAT-hNE complex) in supernatant of NL20 cells expressing human Z-AAT; read-out: NL20 Func. (EC50). The procedure, abridged: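 NL20 cells expressing Z-AAT, seeded 16,000 cells/well, received compound with doxycycline (0.1 μM final) and were incubated overnight at 37° C. Supernatants, diluted 45-fold in total, reacted with excess human neutrophil elastase; AAT-elastase complex captured on anti-AAT plates, detected with Sulfo-tagged anti-elastase by MSD electrochemiluminescence, and quantified against M-AAT standards (0.156-320 ng/mL).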

The pEC50 is the negative decadic logarithm of the EC50, by convention in mol/L.

Each structure is given as a SMILES string. pEC50: −log10 of the molar value.

T1 sequence (P01009 25-418 E366K): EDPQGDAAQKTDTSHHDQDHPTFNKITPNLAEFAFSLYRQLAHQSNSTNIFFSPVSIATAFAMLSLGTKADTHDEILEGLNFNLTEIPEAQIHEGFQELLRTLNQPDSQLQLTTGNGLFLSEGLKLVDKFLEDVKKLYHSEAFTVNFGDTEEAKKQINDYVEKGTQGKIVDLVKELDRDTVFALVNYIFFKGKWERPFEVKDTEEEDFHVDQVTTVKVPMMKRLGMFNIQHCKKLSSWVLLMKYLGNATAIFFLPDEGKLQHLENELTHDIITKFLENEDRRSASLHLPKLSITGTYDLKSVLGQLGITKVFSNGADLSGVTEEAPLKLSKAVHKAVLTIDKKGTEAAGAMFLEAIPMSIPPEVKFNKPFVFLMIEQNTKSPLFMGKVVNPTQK

Take `O=C(O)[C@H]1C[C@H](c2c(C3CCOCC3)n(-c3ccc(F)c(F)c3)c3cc4cn[nH]c4cc32)C1` [Compound 66]: the pEC50 was 5.52 to 5.94.

Turning to `Cc1cc(-n2c(C(C)C)c(CC3(C(=O)O)CC3)c3cc4[nH]ncc4cc32)ccc1F` [Compound 17, 1-[[5-(4-fluoro-3-methyl-phenyl)-6-isopropyl-1H-pyrrolo[2,3-f]indazol-7-yl]methyl]cyclopropanecarboxylic Acid], the pEC50 was above 5.94.

On to `O=C(O)CCc1c(C2CNC2)n(-c2ccc(F)cc2)c2cc3cn[nH]c3cc12` [Compound 198, 3-[6-(azetidin-3-yl)-5-(4-fluorophenyl)-1H-pyrrolo[2,3-f]indazol-7-yl]propanoic Acid], for which the pEC50 was below 5.52.

With `CC(C)c1c(CCC(=O)OC2O[C@H](C(=O)O)[C@@H](O)[C@H](O)[C@H]2O)c2cc3[nH]ncc3cc2n1-c1ccc(F)cc1` (stereo in doubt) [Compound 173, (2S,3S,4S,5R)-6-[3-[5-(4-fluorophenyl)-6-isopropyl-1H-pyrrolo[2,3-f]indazol-7-yl]propanoyloxy]-3,4,5-trihydroxy-tetrahydropyran-2-carboxylic Acid], the pEC50 was below 5.52.

On to `O=C(O)CC1CC(c2c(C3CCOCC3)n(-c3ccc(F)c(Cl)c3)c3cc4cn[nH]c4cc23)C1` (mixture of isomers) [Compound 85], for which the pEC50 is 5.52 to 5.94.

Turning to `CNS(=O)(=O)CCc1c(C2CCOCC2)n(-c2ccc(F)cc2)c2cc3cn[nH]c3cc12` [Compound 159, 2-[5-(4-fluorophenyl)-6-tetrahydropyran-4-yl-1H-pyrrolo[2,3-f]indazol-7-yl]-N-methyl-ethanesulfonamide], the pEC50 is 5.52 to 5.94.

Consider `O=C(O)C1CC2(C1)CC(c1c(C3CCOCC3)n(-c3ccc(F)c(Cl)c3)c3cc4cn[nH]c4cc13)C2` (single isomer, unassigned) [Compound 77], for which the pEC50 is above 5.94.

Turning to `N#Cc1c(C2CCOCC2)n(-c2ccc(F)cc2)c2cc3cn[nH]c3cc12` [Compound 61, 5-(4-fluorophenyl)-6-tetrahydropyran-4-yl-1H-pyrrolo[2,3-f]indazole-7-carbonitrile], the negative logarithm of the EC50 (pEC50) was below 5.52.

Regarding `Cc1cc(-n2c(C(C)C)c(S(C)(=O)=O)c3cc4[nH]ncc4cc32)ccc1F` [Compound 11, 5-(4-fluoro-3-methyl-phenyl)-6-isopropyl-7-methylsulfonyl-1H-pyrrolo[2,3-f]indazole], the pEC50 was 5.52 to 5.94.

In the case of `O=C(OCc1ccccc1)N1CCCC(Cc2c(C3CCOCC3)n(-c3ccc(F)cc3)c3cc4cn[nH]c4cc23)C1` (centres unmarked) [Compound 154, benzyl 3-[[5-(4-fluorophenyl)-6-tetrahydropyran-4-yl-M-pyrrolo[2,3-f]indazol-7-yl]methyl]piperidine-1-carboxylate], the pEC50 was 5.52 to 5.94.

`CC(C)c1c(CCC(=O)O)c2c(F)c3[nH]ncc3cc2n1-c1ccc(F)cc1` [Compound 53, 3-[8-fluoro-5-(4-fluorophenyl)-6-isopropyl-1H-pyrrolo[2,3-f]indazol-7-yl]propanoic Acid]: the pEC50 was above 5.94.

`Cc1cc(-n2c(C(C)C)c(C3CC4(CC(C(=O)O)C4)C3)c3cc4[nH]nc(C)c4cc32)ccc1F` (single isomer, unassigned) [Compound 58, 6-[5-(4-fluoro-3-methyl-phenyl)-6-isopropyl-3-methyl-1H-pyrrolo[2,3-f]indazol-7-yl]spiro[3.3]heptane-2-carboxylic acid]: the pEC50 was 5.52 to 5.94.

As to `Cc1cc(-n2c(C(C)C)c(C(=O)N3CCOCC3)c3cc4[nH]ncc4cc32)ccc1F` [Compound 4, [5-(4-fluoro-3-methyl-phenyl)-6-isopropyl-1H-pyrrolo[2,3-f]indazol-7-yl]-morpholino-methanone], the pEC50 is below 5.52.

As to `Cc1cc(F)ccc1-n1c(C2CCOCC2)c(CC2(C(=O)O)CC2)c2cc3[nH]ncc3cc21` [Compound 124, 1-[[5-(4-fluoro-2-methyl-phenyl)-6-tetrahydropyran-4-yl-1H-pyrrolo[2,3-f]indazol-7-yl]methyl]cyclopropanecarboxylic Acid], the pEC50 is 5.52 to 5.94.

On to `Cc1cc(-n2c(C3CCOCC3)c(CC3CC(C(=O)O)C3)c3cc4[nH]ncc4cc32)ccc1F` (mixture of isomers) [Compound 96], for which the pEC50 was above 5.94.

Consider `O=S1(=O)CCC(Cc2c(C3CCOCC3)n(-c3ccc(F)cc3)c3cc4cn[nH]c4cc23)CC1` [Compound 147], for which the pEC50 is 5.52 to 5.94.

Take `Cc1cc(-n2c(C(C)C)c(C(C)CC(=O)O)c3cc4[nH]ncc4cc32)ccc1F` (single isomer, unassigned) [Compound 27]: the pEC50 was above 5.94.

`Cc1cc(-n2c(C(C)C)c(C3CC4(CC(C(=O)O)C4)C3)c3cc4[nH]ncc4cc32)ccc1F` (single isomer, unassigned) [Compound 25]: the pEC50 was above 5.94.

`C[C@@H](O)C(=O)N1CC2(CC(c3c(C4CCOCC4)n(-c4ccc(F)c(F)c4)c4cc5cn[nH]c5cc34)C2)C1` [Compound 185, (2R)-1-[6-[5-(3,4-difluorophenyl)-6-tetrahydropyran-4-yl-1H-pyrrolo[2,3-f]indazol-7-yl]-2-azaspiro[3.3]heptan-2-yl]-2-hydroxy-propan-1-one]: the pEC50 was 5.52 to 5.94.

As to `NC(=O)N1CCCC(Cc2c(C3CCOCC3)n(-c3ccc(F)cc3)c3cc4cn[nH]c4cc23)C1` (centres unmarked) [Compound 155, 3-[[5-(4-fluorophenyl)-6-tetrahydropyran-4-yl-1H-pyrrolo[2,3-f]indazol-7-yl]methyl]piperidine-1-carboxamide], the pEC50 is below 5.52.

`C=C(C)c1c(C23CC(C(=O)O)(C2)C3)c2cc3[nH]ncc3cc2n1-c1ccc(F)cc1` [Compound 208, 3-[5-(4-fluorophenyl)-6-isopropenyl-1H-pyrrolo[2,3-f]indazol-7-yl]bicyclo[1.1.1]pentane-1-carboxylic Acid]: the negative logarithm of the EC50 (pEC50) was above 5.94.

For `[H][C@]1(C(=O)O)C[C@]2(C1)C[C@]([H])(c1c(C3CCOCC3)n(-c3ccc(F)cc3)c3cc4cn[nH]c4cc31)C2` (single isomer, unassigned) [Compound 110], the negative logarithm of the EC50 (pEC50) is 5.52 to 5.94.

With `Cc1cc(-n2c(C(C)C)c(C3CC3C(=O)O)c3cc4[nH]ncc4cc32)ccc1F` (single isomer, unassigned) [Compound 14, 2-[5-(4-fluoro-3-methyl-phenyl)-6-isopropyl-1H-pyrrolo[2,3-f]indazol-7-yl]cyclopropanecarboxylic acid], the pEC50 is above 5.94.

As to `C=C(C)c1c(C23CC(C(=O)OC)(C2)C3)c2cc3[nH]ncc3cc2n1-c1ccc(F)cc1` [Compound 207, methyl 3-[5-(4-fluorophenyl)-6-isopropenyl-1H-pyrrolo[2,3-f]indazol-7-yl]bicyclo[1.1.1]pentane-1-carboxylate], the negative logarithm of the EC50 (pEC50) is below 5.52.

Turning to `CCCn1c(C2CCOCC2)c(C2CC3(CC(C(=O)O)C3)C2)c2cc3[nH]ncc3cc21` (centres unmarked) [Compound 196, 6-(5-propyl-6-tetrahydropyran-4-yl-1H-pyrrolo[2,3-f]indazol-7-yl)spiro[3.3]heptane-2-carboxylic Acid], the pEC50 was below 5.52.

Regarding `O=C(O)[C@H]1C[C@@H](c2c(C3CCOCC3)n(-c3ccc(F)c(F)c3)c3cc4cn[nH]c4cc32)C1` [Compound 65], the pEC50 was below 5.52.

Regarding `[2H]c1c([2H])c(-n2c(C(C)C)c(CCC(=O)O)c3cc4[nH]ncc4cc32)c([2H])c([2H])c1F` [Compound 188, 3-[6-isopropyl-5-(2,3,5,6-tetradeuterio-4-fluoro-phenyl)-1H-pyrrolo[2,3-f]indazol-7-yl]propanoic Acid], the pEC50 is 5.52 to 5.94.

For the compound `COCC(C)(C)c1c(CCCNC(N)=O)c2cc3[nH]ncc3cc2n1-c1ccc(F)cc1` [Compound 180], the negative logarithm of the EC50 (pEC50) was 5.52 to 5.94.

Regarding `CC(C)c1c(CCC(=O)O)c2cc3[nH]ccc3cc2n1-c1ccc(F)cc1` [Compound 200, 3-[1-(4-fluorophenyl)-2-isopropyl-5H-pyrrolo[2,3-f]indol-3-yl]propanoic Acid], the pEC50 was below 5.52.

Regarding `Cc1cc(-n2c(C3CCOCC3)c(CCC(=O)O)c3cc4[nH]nc(C)c4cc32)ccc1F` [Compound 125, 3-[5-(4-fluoro-3-methyl-phenyl)-3-methyl-6-tetrahydropyran-4-yl-1H-pyrrolo[2,3-f]indazol-7-yl]propanoic Acid], the pEC50 was below 5.52.

With `COCC(C)(C)c1c(CCC(=O)O)c2cc3[nH]ncc3cc2n1-c1ccc(F)cc1` [Compound 177], the pEC50 is 5.52 to 5.94.

`CC(C)c1c(C#N)c2cc3[nH]ncc3cc2n1-c1ccc(F)cc1` [Compound 29, 5-(4-fluorophenyl)-6-isopropyl-1H-pyrrolo[2,3-f]indazole-7-carbonitrile]: the pEC50 was above 5.94.

Take `Cc1cc(-n2c(C3CCOCC3)c(CC34CC(C(=O)O)(C3)C4)c3cc4[nH]ncc4cc32)ccc1F` [Compound 103]: the pEC50 is below 5.52.

In the case of `Cc1cc(-n2c(C(C)C)c(C(=O)N3CCN(C)CC3)c3cc4[nH]ncc4cc32)ccc1F` [Compound 5, [5-(4-fluoro-3-methyl-phenyl)-6-isopropyl-1H-pyrrolo[2,3-f]indazol-7-yl]-(4-methylpiperazin-1-yl)methanone], the negative-log EC50 (pEC50) was below 5.52.

As for `O=C(O)C1CC(Cc2c(C3CCOCC3)n(-c3ccc(F)cc3)c3cc4cn[nH]c4cc23)C1` (racemic) [Compound 116], the pEC50 is below 5.52.

With `Cc1cc(-n2c(C(C)C)c(N3CCOCC3=O)c3cc4[nH]ncc4cc32)ccc1F` [Compound 9, 4-[5-(4-fluoro-3-methyl-phenyl)-6-isopropyl-1H-pyrrolo[2,3-f]indazol-7-yl]morpholin-3-one], the pEC50 was below 5.52.

Take `NC(=O)[C@H]1C[C@@H](c2c(C3CCOCC3)n(-c3ccc(F)cc3)c3cc4cn[nH]c4cc32)C1` [Compound 160]: the negative logarithm of the EC50 (pEC50) was below 5.52.

Take `Cc1cc(-n2c(C(C)C)cc3c(C)c4[nH]ncc4cc32)ccc1F` [Compound 49, 5-(4-fluoro-3-methyl-phenyl)-6-isopropyl-8-methyl-1H-pyrrolo[2,3-f]indazole]: the pEC50 is below 5.52.

These data come from patent US11623924B2, “Modulators of alpha-1 antitrypsin” (Vertex Pharmaceuticals Incorporated, priority 2018, dated 2023).
